# Assay results as given in patent EP3381906A1, “COMPOUNDS FOR USE AS HEPARANASE INHIBITORS” (Leadiant Biosciences SA, priority 2017, dated 2018).
# pEC50: −log10 of the molar value.
# Experiments:
# Type in all cases: cell-based
# [1] = tested on: U87MG (human glioblastoma astrocytoma); experiment: SRB Cell Cytotoxicity Assay; conditions: U-87 MG, treated for 72h, read-out: Concentration of test compounds at which the cell growth is inhibited by 50 % U87MG
# Text: (§1) SRB Cell Cytotoxicity Assay is an assay based upon the quantitative staining of cellular proteins by sulforhodamine B (SRB). This assay can be used for high-throughput drug screening (Vichai & Kirkitara, Nature Protocol. 2006, 1, 112). Sulforhodamine B is an anionic aminoxanthene dye that forms an electrostatic complex with the basic amino acid residues of proteins under moderately acid conditions, which provides a sensitive linear response.
# (§2) To assess a putative antiproliferative activity of the selected compounds, HT1080 (human fibrosarcoma), U87MG (human glioblastoma astrocytoma) and U2OS (human osteosarcoma) cell lines were treated for 72h, in triplicate, with increasing concentrations of heparanase inhibitors. Inhibition of cell proliferation was then measured by the classical colorimetric SRB Cell Cytotoxicity assay. Absorbance was measured by spectrophotometer at a wavelength of 510 nm and cell proliferation was determined as percent with respect to control cells (cells treated with the vehicle alone). EC50 values were then determined by GraphPad Prism.
# [2] = tested on: U2OS (human osteosarcoma); experiment: SRB Cell Cytotoxicity Assay; conditions: treated for 72h, read-out: Concentration of test compounds at which the cell growth is inhibited by 50 % U2OS
# Text: as §1, §2
# [3] = tested on: HT1080 (human fibrosarcoma); experiment: SRB Cell Cytotoxicity Assay; conditions: HT-1080, HT1080, treated for 72h, read-out: Concentration of test compounds at which the cell growth is inhibited by 50 % HT1080
# Text: as §1, §2
# [4] = tested on: HT1080 (human fibrosarcoma); experiment: Matrigel cell invasion assay; conditions: HT-1080, HT1080, Conc. 10 µM
# Procedure: Heparanase inhibitors were then evaluated for their activity on the invasive potential of HT1080 (human fibrosarcoma) human cell lines, using the Matrigel cell invasion assay which allows to assess the cell invasion ability of malignant and normal cells.
# Invasion assay was performed using BioCoat cell culture inserts (BioCoat 8.0µm PET Membrane 24 Well Permeable Supports, Corning). Filters were coated with 100 µl of 300 µg/ml Matrigel dissolved in coating buffer (0.01M Tris pH 8.0, 0.7% NaCl) (Becton-Dickinson Sciences). DMEM (Dulbecco's Modified Eagle's Medium) containing 5% FBS was added to the lower chambers. Cells were pre-treated with heparanase inhibitors for 24 h, detached and added to the upper chambers in media containing the inhibitors. Cells were allowed to invade for 24 h at 37°C in a CO2 incubator and then unmigrated cells were removed from the upper chamber with a cotton swab. The invading cells were fixed, stained with 0.1% crystal violet for 10 min at room temperature, photographed and counted under inverted microscope.
# Test compounds were analyzed at fixed concentration for several fields, in duplicates. Activity of test compounds was compared to the reference compound. Activity of most interesting compound was confirmed in a second cell invasion assay. Data were expressed as the percent invasion with respect to cell migration through uncoated insert membrane. (Table 5)
smiles,measurement,setting,value
COc1cc(N=Nc2cc(S(=O)(=O)O)cc3cc(S(=O)(=O)O)cc(O)c23)c(C)cc1NC(=O)Nc1cc(C)c(N=Nc2cc(S(=O)(=O)O)cc3cc(S(=O)(=O)O)cc(O)c23)cc1OC [SST0597],pEC50,[1],< 5.00
same,pEC50,[2],< 5.00
same,pEC50,[3],< 5.00
same,inhibition at 10 µM,[4],> 90%
